This is an account of results in the supplement of paper PMC11368000.

For the first experiment, the system named is 1531 (donor line of iPSC-derived cardiomyocytes). The experiment is described as follows: POD (EC05) for increase in beat frequency (positive chronotrope) vs vehicle; higher = less potent (higher point of departure). Conditions: exposure time: 90 min. Here is the method:
(§1)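 Human iPSC-derived cardiomyocytes from 16 donors were exposed for 90 min at 37 °C to each PFAS at 0.1, 1, 10 and 100 µM in 0.5% DMSO, 384-well plates. Kinetic Ca2+ flux (FLIPR) and Hoechst nuclei counts were normalised to vehicle wells and fitted with a hierarchical Bayesian Hill model to give donor-specific PODs: EC05 for beat-rate increase or decrease and for decay-to-rise ratio increase (QT proxy), EC95 for peak-frequency loss (asystole), EC10 for total cell number loss. 0.03 µM is the lower bound.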
In turn, `OCC(F)(F)C(F)(F)C(F)(F)C(F)(F)C(F)(F)C(F)(F)F` [6:1 Fluorotelomer alcohol] displayed a POD vs vehicle of over 100 µM.
The same measure, in the same setting: in the case of `OCCC(F)(F)C(F)(F)C(F)(F)C(F)(F)C(F)(F)C(F)(F)F` [6:2 Fluorotelomer alcohol] it was over 100 µM.
In turn, `O=S(=O)(O)CCC(F)(F)C(F)(F)C(F)(F)C(F)(F)C(F)(F)C(F)(F)F` [6:2 Fluorotelomer sulfonic acid] had a POD vs vehicle of over 100 µM.
On to `OCCC(F)(F)C(F)(F)C(F)(F)C(F)(F)C(F)(F)C(F)(F)C(F)(F)C(F)(F)F` [8:2 Fluorotelomer alcohol], for which the POD vs vehicle is over 100 µM.
`O=S(=O)(O)CCC(F)(F)C(F)(F)C(F)(F)C(F)(F)C(F)(F)C(F)(F)C(F)(F)C(F)(F)F` [8:2 Fluorotelomer sulfonic acid] displayed a POD vs vehicle of over 100 µM.
The same measure, in the same setting: the result for `O=C(O)C(F)(F)C(F)(F)C(F)(F)C(F)(F)C(F)(F)C(F)(F)C(F)(F)C(F)(F)Cl` [9-Chloro-perfluorononanoic_acid] reads over 100 µM.
On the same count and under the same terms, in the case of `O=P(O)(O)CCC(F)(F)C(F)(F)C(F)(F)C(F)(F)C(F)(F)C(F)(F)C(F)(F)C(F)(F)F` [((Perfluorooctyl)ethyl)phosphonic_acid] it was over 100 µM; in that of `OCC(F)(F)C(F)(F)C(F)(F)C(F)(F)C(F)(F)C(F)F` [Dodecafluoroheptanol], over 100 µM; in that of `OCC(F)(F)C(F)(F)C(F)(F)F` [Heptafluorobutanol], over 100 µM.
Still for that read-out and setting: the result for `NC(=O)C(F)(F)C(F)(F)C(F)(F)F` [Heptafluorobutyramide] reads over 100 µM; that for `OCC(F)(F)C(F)(F)C(F)(F)CO` [Hexafluoroamylene_glycol], over 100 µM.
The molecule `COC(=O)C(F)(F)C(F)(F)OC(F)(C(F)(F)F)C(F)(F)OC(F)=C(F)F` (configuration not stated) [Methyl_perfluoro(3-(1-ethenyloxypropan-2-yloxy)propanoate)] registered a POD vs vehicle of over 100 µM.
On to `NC(=O)C(F)(F)C(F)(F)C(F)(F)C(F)(F)F` [Nonafluoropentanamide], for which the POD vs vehicle was over 100 µM.
As to `NC(=O)C(F)(F)C(F)(F)C(F)(F)C(F)(F)C(N)=O` [Octafluoroadipamide], the POD vs vehicle is over 100 µM.
`O=C(O)C(F)(F)C(F)(F)C(F)(F)C(F)(F)C(=O)O` [Octafluoroadipic_acid]: the POD vs vehicle is over 100 µM.
The same measure, in the same setting: in the case of `O=C(O)C(F)(F)C(F)(F)C(F)(F)OC(F)(F)F` [Perfluoro(4-methoxybutanoic)_acid] it was over 100 µM.
The same measure, in the same setting: the result for `O=C(O)C(F)(F)OC(F)(F)C(F)(F)OC(F)(F)C(F)(F)OC(F)(F)C(F)(F)C(F)(F)C(F)(F)F` [Perfluoro-3,6,9-trioxatridecanoic_acid] reads over 100 µM; that for `O=C(O)C(F)(F)OC(F)(F)C(F)(F)OC(F)(F)F` [Perfluoro-3,6-dioxaheptanoic_acid], over 100 µM; that for `O=C(O)C(F)(F)OC(F)(F)C(F)(F)OC(F)(F)C(=O)O` [Perfluoro-3,6-dioxaoctane-1,8-dioic_acid], over 100 µM.

The next experiment relates to 11235 (donor line of iPSC-derived cardiomyocytes). The description is as above. Conditions: exposure time: 90 min. The procedure: as §1
Turning to `OCC(F)(F)C(F)(F)C(F)(F)C(F)(F)C(F)(F)C(F)(F)F` [6:1 Fluorotelomer alcohol], the POD vs vehicle is over 100 µM.
As to `OCCC(F)(F)C(F)(F)C(F)(F)C(F)(F)C(F)(F)C(F)(F)F` [6:2 Fluorotelomer alcohol], the POD vs vehicle was over 100 µM.
Molecule `O=S(=O)(O)CCC(F)(F)C(F)(F)C(F)(F)C(F)(F)C(F)(F)C(F)(F)F` [6:2 Fluorotelomer sulfonic acid] yielded a POD vs vehicle of over 100 µM.
Same read-out and setting: the result for `OCCC(F)(F)C(F)(F)C(F)(F)C(F)(F)C(F)(F)C(F)(F)C(F)(F)C(F)(F)F` [8:2 Fluorotelomer alcohol] reads over 100 µM.
The same measure, in the same setting: the result for `O=S(=O)(O)CCC(F)(F)C(F)(F)C(F)(F)C(F)(F)C(F)(F)C(F)(F)C(F)(F)C(F)(F)F` [8:2 Fluorotelomer sulfonic acid] reads over 100 µM.
Same read-out and setting: the result for `O=C(O)C(F)(F)C(F)(F)C(F)(F)C(F)(F)C(F)(F)C(F)(F)C(F)(F)C(F)(F)Cl` [9-Chloro-perfluorononanoic_acid] reads over 100 µM; that for `O=P(O)(O)CCC(F)(F)C(F)(F)C(F)(F)C(F)(F)C(F)(F)C(F)(F)C(F)(F)C(F)(F)F` [((Perfluorooctyl)ethyl)phosphonic_acid], over 100 µM.
In the case of `OCC(F)(F)C(F)(F)C(F)(F)C(F)(F)C(F)(F)C(F)F` [Dodecafluoroheptanol], the POD vs vehicle is over 100 µM.
The same measure, in the same setting: the result for `OCC(F)(F)C(F)(F)C(F)(F)F` [Heptafluorobutanol] reads over 100 µM.
In the case of `NC(=O)C(F)(F)C(F)(F)C(F)(F)F` [Heptafluorobutyramide], the POD vs vehicle is over 100 µM.
On the same count and under the same terms, the result for `OCC(F)(F)C(F)(F)C(F)(F)CO` [Hexafluoroamylene_glycol] reads over 100 µM; that for `COC(=O)C(F)(F)C(F)(F)OC(F)(C(F)(F)F)C(F)(F)OC(F)=C(F)F` (configuration not stated) [Methyl_perfluoro(3-(1-ethenyloxypropan-2-yloxy)propanoate)], over 100 µM; that for `NC(=O)C(F)(F)C(F)(F)C(F)(F)C(F)(F)F` [Nonafluoropentanamide], over 100 µM.
Still for that read-out and setting: the result for `NC(=O)C(F)(F)C(F)(F)C(F)(F)C(F)(F)C(N)=O` [Octafluoroadipamide] reads over 100 µM; that for `O=C(O)C(F)(F)C(F)(F)C(F)(F)C(F)(F)C(=O)O` [Octafluoroadipic_acid], over 100 µM.
Same read-out and setting: the result for `O=C(O)C(F)(F)C(F)(F)C(F)(F)OC(F)(F)F` [Perfluoro(4-methoxybutanoic)_acid] reads over 100 µM; that for `O=C(O)C(F)(F)OC(F)(F)C(F)(F)OC(F)(F)C(F)(F)OC(F)(F)C(F)(F)C(F)(F)C(F)(F)F` [Perfluoro-3,6,9-trioxatridecanoic_acid], over 100 µM; that for `O=C(O)C(F)(F)OC(F)(F)C(F)(F)OC(F)(F)F` [Perfluoro-3,6-dioxaheptanoic_acid], over 100 µM.
In the case of `O=C(O)C(F)(F)OC(F)(F)C(F)(F)OC(F)(F)C(=O)O` [Perfluoro-3,6-dioxaoctane-1,8-dioic_acid], the POD vs vehicle is over 100 µM.

The test system of the next experiment is 1535 (donor line of iPSC-derived cardiomyocytes). The description is as above. The settings on record: exposure time: 90 min. The procedure:
as §1
With `OCC(F)(F)C(F)(F)C(F)(F)C(F)(F)C(F)(F)C(F)(F)F` [6:1 Fluorotelomer alcohol], the POD vs vehicle was over 100 µM.
The molecule `OCCC(F)(F)C(F)(F)C(F)(F)C(F)(F)C(F)(F)C(F)(F)F` [6:2 Fluorotelomer alcohol] gave a POD vs vehicle of 5.24 µM.
As to `O=S(=O)(O)CCC(F)(F)C(F)(F)C(F)(F)C(F)(F)C(F)(F)C(F)(F)F` [6:2 Fluorotelomer sulfonic acid], the POD vs vehicle is over 100 µM.
The molecule `OCCC(F)(F)C(F)(F)C(F)(F)C(F)(F)C(F)(F)C(F)(F)C(F)(F)C(F)(F)F` [8:2 Fluorotelomer alcohol] showed a POD vs vehicle of over 100 µM.
Still for that read-out and setting: the result for `O=S(=O)(O)CCC(F)(F)C(F)(F)C(F)(F)C(F)(F)C(F)(F)C(F)(F)C(F)(F)C(F)(F)F` [8:2 Fluorotelomer sulfonic acid] reads over 100 µM.
Take `O=C(O)C(F)(F)C(F)(F)C(F)(F)C(F)(F)C(F)(F)C(F)(F)C(F)(F)C(F)(F)Cl` [9-Chloro-perfluorononanoic_acid]: the POD vs vehicle was over 100 µM.
As for `O=P(O)(O)CCC(F)(F)C(F)(F)C(F)(F)C(F)(F)C(F)(F)C(F)(F)C(F)(F)C(F)(F)F` [((Perfluorooctyl)ethyl)phosphonic_acid], the POD vs vehicle was over 100 µM.
`OCC(F)(F)C(F)(F)C(F)(F)C(F)(F)C(F)(F)C(F)F` [Dodecafluoroheptanol] gave a POD vs vehicle of over 100 µM.
`OCC(F)(F)C(F)(F)C(F)(F)F` [Heptafluorobutanol]: the POD vs vehicle is over 100 µM.
